In the NIST ThermoML archive (doi:10.1007/s10765-013-1526-8):

Assays:
[1] = refractive index (Na D-line) (dimensionless); xn = mol fraction of the nth substance listed; conditions: 101 kPa, Liquid
[2] = xn = mol fraction of the nth substance listed; conditions: 101 kPa, Liquid; for speed of sound: Sing-around technique in a fixed-path interferometer
[3] = refractive index (Na D-line) (dimensionless); conditions: 101.33 kPa, Liquid
[4] = 101 kPa, Liquid; for speed of sound: Sing-around technique in a fixed-path interferometer

c1ccccc1 [benzene] + CCCCC(CC)CO
x1 = 1
Conditions	mass density, [2] [kg/m3]	refractive index, [1]	speed of sound, [2] [m/s]	viscosity, [2] [mPa·s]
298.15 K	873.66	1.4969	1299	0.603
303.15 K	868.29	1.4949	1276	0.557
308.15 K	862.92	1.4929	1253	0.533

c1ccccc1 [benzene]
Conditions	mass density, [4] [kg/m3]	refractive index, [3]	speed of sound, [4] [m/s]	viscosity, [4] [mPa·s]
298.15 K	873.66	1.4969	1299	0.603
303.15 K	868.29	1.4949	1276	0.557
308.15 K	862.92	1.4929	1253	0.533

CCCCC(CC)CO (centres undefined) [2-ethyl-1-hexanol]
Conditions	mass density, [4] [kg/m3]	refractive index, [3]	speed of sound, [4] [m/s]	viscosity, [4] [mPa·s]
298.15 K	829.07	1.4287	1319	8.418
303.15 K	825.39	1.4266	1301	7.144
308.15 K	821.68	1.4245	1283	6.09

Clc1ccccc1 [chlorobenzene] + CCCCC(CC)CO
x1 = 1
Conditions	mass density, [2] [kg/m3]	refractive index, [1]	speed of sound, [2] [m/s]	viscosity, [2] [mPa·s]
298.15 K	1101.03	1.524	1268	0.767
303.15 K	1095.52	1.521	1249	0.716
308.15 K	1090.2	1.518	1231	0.66

Brc1ccccc1 [bromobenzene]
Conditions	mass density, [4] [kg/m3]	refractive index, [3]	speed of sound, [4] [m/s]	viscosity, [4] [mPa·s]
298.15 K	1488.12	1.557	1153	1.065
303.15 K	1481.4	1.555	1138	1.005
308.15 K	1474.58	1.553	1122	0.972

Clc1ccccc1 [chlorobenzene]
Conditions	mass density, [4] [kg/m3]	refractive index, [3]	speed of sound, [4] [m/s]	viscosity, [4] [mPa·s]
298.15 K	1101.03	1.524	1268	0.767
303.15 K	1095.52	1.521	1249	0.716
308.15 K	1090.2	1.518	1231	0.66

CCCCC(CC)CO (centres undefined) [2-ethyl-1-hexanol] + Brc1ccccc1
x2 = 0
Conditions	mass density, [2] [kg/m3]	refractive index, [1]	speed of sound, [2] [m/s]	viscosity, [2] [mPa·s]
298.15 K	829.07	1.4287	1319	8.418
303.15 K	825.39	1.4266	1301	7.144
308.15 K	821.68	1.4245	1283	6.09
